In experiment [1] the target is T1, recombinant human B1 receptors (Homo sapiens, UniProt P46663).
T1 construct: host or cells: CHO (CHO-B1)
T1 sequence (P46663 1-353): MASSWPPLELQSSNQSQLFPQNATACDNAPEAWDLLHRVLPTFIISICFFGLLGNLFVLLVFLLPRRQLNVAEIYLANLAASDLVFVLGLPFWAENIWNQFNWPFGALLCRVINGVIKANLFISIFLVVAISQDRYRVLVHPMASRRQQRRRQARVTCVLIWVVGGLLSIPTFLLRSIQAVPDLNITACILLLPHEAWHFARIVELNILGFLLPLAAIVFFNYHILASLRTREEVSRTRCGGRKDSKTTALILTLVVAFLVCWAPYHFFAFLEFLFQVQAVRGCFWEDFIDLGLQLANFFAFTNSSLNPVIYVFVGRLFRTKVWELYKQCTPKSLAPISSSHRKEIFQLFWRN
The experiment is described as follows: Functional assay: antagonist potency by cytosolic calcium measurement (plate reader fluorimeter) in CHO-B1 cells, agonist LysDABK. Format: cell-based. In a few lines: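 IC50 is the concentration giving half-maximal inhibition of the LysDABK (EC80) calcium response, fitted from at least three experiments. CHO cells stably expressing human B1 were dye-loaded, exposed to compound for 20-25 min, then read by fluo-4 fluorescence (ΔF/F) at 37 °C.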

Experiment [2] concerns the target T2, human recombinant bradykinin B1 receptor (Homo sapiens, UniProt P46663).
T2 construct: host or cells: CHO cells, clone hB1-A5
T2 sequence (P46663 1-353): T1 sequence (P46663 1-353)
Briefly: Human recombinant bradykinin B1 receptor competitive radioligand binding. In a few lines: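 Competition radioligand binding on CHO-expressed hB1 membranes, using [3,4-prolyl-3,4-^3H(N)]-[Des-Arg^10] Kallidin as tracer, 15 min at 25° C. Excess Lys-des-Arg^9-Bradykinin (10 μM) set nonspecific binding. Sigmoidal fits of at least seven concentrations gave IC50, converted to Ki via Cheng-Prusoff; KD from Scatchard.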

Setting [3] is: CHO-B1 cells, inhibition of LysDABK (EC80)-evoked [Ca2+]i elevation, read-out: B1 func.
[4] abbreviates: hB1 expressed in CHO cells, [3H]-[Des-Arg10] Kallidin radioligand, read-out: B1 binding.

Each structure is given as a SMILES string. Structures can show the parent of a compound that is named as a salt. Where two headings read alike, the source gives them in different places.

`Cc1nc(-c2c(Cl)c3ccccc3n2-c2ccc(CNC(=O)C3(NC(=O)CC(F)(F)F)CC3)cc2)no1` [Example 163, 1-(3,3,3-Trifluoro-propionylamino)-cyclopropanecarboxylic acid 4-[3-chloro-2-(5-methyl-[1,2,4]oxadiazol-3-yl)-indol-1-yl]-benzylamide]: the IC50 in experiment [1] (setting [3]) was under 20 nM. Besides, the Ki in experiment [2] (setting [4]) was under 20 nM.
`Cn1nnc(-c2c(Cl)c3ccccc3n2-c2ccc(CNC(=O)C3(NC(=O)c4cc(C5CC5)on4)CC3)cc2)n1` [Example 24, 5-Cyclopropyl-isoxazole-3-carboxylic acid (1-{4-[3-chloro-2-(2-methyl-2H-tetrazol-5-yl)-indol-1-yl]-benzylcarbamoyl}-cyclopropyl)-amide]: in experiment [1] (setting [3]), the IC50 is under 20 nM. In addition, in experiment [2] (setting [4]), the Ki is under 20 nM.
Take `COc1cc(C(=O)NC2(C(=O)NCc3ccc(-n4c(-c5nnn(C)n5)c(Cl)c5ccccc54)cn3)CC2)on1` [Example 60]: the IC50 in experiment [1] (setting [3]) is under 20 nM. Besides, the Ki in experiment [2] (setting [4]) was under 20 nM.
Take `Cn1nnc(-c2c(Cl)c3ccccc3n2-c2ccc(CNC(=O)C3(NC(=O)c4cccnc4Cl)CC3)cc2)n1` [Example 27, 2-Chloro-N-(1-{4-[3-chloro-2-(2-methyl-2H-tetrazol-5-yl)-indol-1-yl]-benzylcarbamoyl}-cyclopropyl)-nicotinamide]: in experiment [1] (setting [3]), the IC50 is under 20 nM. For the same compound, the Ki in experiment [2] (setting [4]) was under 20 nM.
Take `COc1cc(C(=O)NC2(C(=O)NCc3ccc(-n4c(-c5noc(C)n5)c(Cl)c5cc(F)ccc54)cc3F)CC2)on1` [Example 197, 3-Methoxy-isoxazole-5-carboxylic acid (1-{4-[3-chloro-5-fluoro-2-(5-methyl-[1,2,4]oxadiazol-3-yl)-indol-1-yl]-2-fluoro-benzylcarbamoyl}-cyclopropyl)-amide]: the IC50 in experiment [1] (setting [3]) was under 20 nM. Also, in experiment [2] (setting [4]), the Ki was under 20 nM.
Regarding `Cc1nc(-c2c(Cl)c3cc(F)ccc3n2-c2ccc(CNC(=O)C3(NC(=O)c4cccnc4F)CC3)cc2)no1` [Example 117, N-(1-{4-[3-Chloro-5-fluoro-2-(5-methyl-[1,2,4]oxadiazol-3-yl)-indol-1-yl]-benzylcarbamoyl}-cyclopropyl)-2-fluoro-nicotinamide], the IC50 in experiment [1] (setting [3]) is under 20 nM. Further, in experiment [2] (setting [4]), the Ki was under 20 nM.
In the case of `Cc1nc(-c2c(Cl)c3ccccc3n2-c2ccc(CNC(=O)C3(NC(=O)Cc4ccsc4)CC3)cc2)no1` [Example 147, 1-(2-Thiophen-3-yl-acetylamino)-cyclopropanecarboxylic acid 4-[3-chloro-2-(5-methyl-[1,2,4]oxadiazol-3-yl)-indol-1-yl]-benzylamide], the IC50 in experiment [1] (setting [3]) is 20 to 100 nM. Also, the Ki in experiment [2] (setting [4]) lay within 100 to 500 nM.
Regarding `COC(=O)c1cc2ccccc2n1-c1ccc(CNC(=O)C2(NC(=O)c3cc(OC)no3)CC2)cc1` [Example 14, 1-{4-[({1-[(3-Methoxy-isoxazole-5-carbonyl)-amino]-cyclopropanecarbonyl}-amino)-methyl]-phenyl}-1H-indole-2-carboxylic acid methyl ester], in experiment [1] (setting [3]), the IC50 was under 20 nM. For the same compound, the Ki in experiment [2] (setting [4]) was under 20 nM.
As to `COc1cc(C(=O)NC2(C(=O)NCc3ccc(-n4c(C(=O)N(C)C)c(Cl)c5ccccc54)cc3)CC2)on1` [Example 35, 3-Chloro-1-{4-[({1-[(3-methoxy-isoxazole-5-carbonyl)-amino]-cyclopropane-carbonyl}-amino)-methyl]-phenyl}-1H-indole-2-carboxylic acid dimethylamide], the IC50 in experiment [1] (setting [3]) was in the range of 20 to 100 nM. The Ki in experiment [2] (setting [4]) is under 20 nM.
Take `Cc1cc(C(=O)NC2(C(=O)NCc3ccc(-n4c(-c5noc(C)n5)c(Cl)c5cc(F)ccc54)cc3)CC2)no1` [Example 88, 5-Methyl-isoxazole-3-carboxylic acid (1-{4-[3-chloro-5-fluoro-2-(5-methyl-[1,2,4]oxadiazol-3-yl)-indol-1-yl]-benzylcarbamoyl}-cyclopropyl)-amide]: the IC50 in experiment [1] (setting [3]) is under 20 nM. Moreover, the Ki in experiment [2] (setting [4]) was under 20 nM.
As for `Cc1nc(-c2c(Cl)c3ccccc3n2-c2ccc(CNC(=O)C3(NC(=O)c4cnn(C)c4)CC3)cc2)no1` [Example 121, 1-Methyl-1H-pyrazole-4-carboxylic acid (1-{4-[3-chloro-2-(5-methyl-[1,2,4]oxadiazol-3-yl)-indol-1-yl]-benzylcarbamoyl}-cyclopropyl)-amide], the IC50 in experiment [1] (setting [3]) is 20 to 100 nM. For the same compound, the Ki in experiment [2] (setting [4]) was under 20 nM.
On to `Cc1nc(-c2c(Cl)c3cc(Cl)ccc3n2-c2ccc(CNC(=O)C3(NC(=O)c4cccnc4Cl)CC3)cc2)no1` [Example 70, 2-Chloro-N-(1-{4-[3,5-dichloro-2-(5-methyl-[1,2,4]oxadiazol-3-yl)-indol-1-yl]-benzylcarbamoyl}-cyclopropyl)-nicotinamide], for which, in experiment [1] (setting [3]), the IC50 is under 20 nM. The Ki in experiment [2] (setting [4]) was under 20 nM.
As to `Cc1nc(-c2c(Cl)c3ccccc3n2-c2ccc(CNC(=O)C3(NC(=O)c4cccc(N)c4)CC3)cc2)no1` [Example 186, 3-Amino-N-(1-{4-[3-chloro-2-(5-methyl-[1,2,4]oxadiazol-3-yl)-indol-1-yl]-benzylcarbamoyl}-cyclopropyl)-benzamide hydrochloride], the IC50 in experiment [1] (setting [3]) was under 20 nM. In addition, in experiment [2] (setting [4]), the Ki was under 20 nM.
Take `CCCN1C(=O)[C@H](NC(=O)Nc2ccc(N3CCC(N4CCCCC4)CC3)cc2)N=C(c2ccc(C)cc2)c2ccccc21` [N-[4-(,4′-bipiperidin)-1′-ylphenyl]-N′-[(3R)-2,3-dihydro-5-(4-methyl-phenyl)-2-oxo-1-propyl-1H-1,4-benzodiazepin-3-yl]-urea, reference compound]: in experiment [1] (reference compounds, functional test, measured by the applicant, read-out: IC50), the IC50 stood at 64.5 nM. Moreover, in experiment [2] (reference compounds, binding test, measured by the applicant, read-out: Ki), the Ki amounted to 13.4 nM.
For the compound `C#CCCC(=O)NC1(C(=O)NCc2ccc(-n3c(-c4noc(C)n4)c(Cl)c4ccccc43)cc2)CC1` [Example 139, 1-Pent-4-ynoylamino-cyclopropanecarboxylic acid 4-[3-chloro-2-(5-methyl-[1,2,4]oxadiazol-3-yl)-indol-1-yl]-benzylamide], in experiment [1] (setting [3]), the IC50 was under 20 nM. Further, the Ki in experiment [2] (setting [4]) was under 20 nM.
Regarding `Cc1nc(-c2c(Cl)c3ccccc3n2-c2ccc(CNC(=O)C3(NC(=O)C4CCCC4)CC3)cc2)no1` [Example 144, Cyclopentanecarboxylic acid (1-{4-[3-chloro-2-(5-methyl-[1,2,4]oxadiazol-3-yl)-indol-1-yl]-benzylcarbamoyl}-cyclopropyl)-amide], the IC50 in experiment [1] (setting [3]) was 20 to 100 nM. For the same compound, the Ki in experiment [2] (setting [4]) fell in the range of 20 to 100 nM.
Take `Cc1cnc(C(=O)NC2(C(=O)NCc3ccc(-n4c(-c5noc(C)n5)cc5cc(F)ccc54)cc3F)CC2)cn1` [Example 131, 5-Methyl-pyrazine-2-carboxylic acid (1-{2-fluoro-4-[5-fluoro-2-(5-methyl-[1,2,4]oxadiazol-3-yl)-indol-1-yl]-benzylcarbamoyl}-cyclopropyl)-amide]: the IC50 in experiment [1] (setting [3]) lay within 20 to 100 nM. In addition, the Ki in experiment [2] (setting [4]) was under 20 nM.
In the same order, the values of `COc1ccc2c(c1)c(Cl)c(C#N)n2-c1ccc(CNC(=O)C2(NC(=O)c3cc(OC)no3)CC2)cc1` [Example 52, 3-Methoxy-isoxazole-5-carboxylic acid {1-[4-(3-chloro-2-cyano-5-methoxy-indol-1-yl)-benzylcarbamoyl]-cyclopropyl}-amide] are under 20 nM and under 20 nM.
As for `Cc1nc(-c2c(Cl)c3ccccc3n2-c2ccc(CNC(=O)C3(NC(=O)c4cccc(C(F)(F)F)c4F)CC3)cc2)no1` [Example 92, N-(1-{4-[3-Chloro-2-(5-methyl-[1,2,4]oxadiazol-3-yl)-indol-1-yl]-benzylcarbamoyl}-cyclopropyl)-2-fluoro-3-trifluoromethyl-benzamide], the IC50 in experiment [1] (setting [3]) was under 20 nM. Moreover, the Ki in experiment [2] (setting [4]) is under 20 nM.
As to `Cn1nnc(-c2c(Cl)c3ccccc3n2-c2ccc(CNC(=O)C3(NC(=O)CC(F)(F)F)CC3)cc2)n1` [Example 29, 1-(3,3,3,-Trifluoro-propionylamino)-cyclopropanecarboxylic acid 4-[3-chloro-2-(2-methyl-2H-tetrazol-5-yl)-indol-1-yl]-benzylamide], the IC50 in experiment [1] (setting [3]) was under 20 nM. In addition, in experiment [2] (setting [4]), the Ki is under 20 nM.
With `COc1ccc2c(c1)cc(-c1nc(C)no1)n2-c1ccc(CNC(=O)C2(NC(=O)c3cncc(C(F)(F)F)c3)CC2)cc1` [Example 79, N-(1-{4-[5-Methoxy-2-(3-methyl-[1,2,4]oxadiazol-5-yl)-indol-1-yl]-benzylcarbamoyl}-cyclopropyl)-5-trifluoromethyl-nicotinamide], the IC50 in experiment [1] (setting [3]) was under 20 nM. In addition, in experiment [2] (setting [4]), the Ki is under 20 nM.
`COc1ccc2c(c1)c(Cl)c(-c1nc(C)no1)n2-c1ccc(CNC(=O)C2(NC(=O)c3cccnc3F)CC2)cc1` [Example 118, N-(1-{4-[3-Chloro-5-methoxy-2-(3-methyl-[1,2,4]oxadiazol-5-yl)-indol-1-yl]-benzylcarbamoyl}-cyclopropyl)-2-fluoro-nicotinamide]: the IC50 in experiment [1] (setting [3]) is under 20 nM. Moreover, in experiment [2] (setting [4]), the Ki was under 20 nM.

Source of the values: US20130217702A1 (Richter Gedeon Nyrt., priority 2010, published 2013).
